IC50 and EC50 data for 1 molecule are collected here from patent US20080107623A1, “Inhibitors of Hepatitis C Virus” (Bristol-Myers Squibb Company, priority 2006, published 2008).

For test [1], the target named is T1, HCV NS3/4A protease complex, J4L6S strain (Hepatitis C virus genotype 1b, UniProt O92972, C1454S/C1711G).
T1 construct: recombinant HCV NS3/4A protease complex (amino acids 1027 to 1711) for these strains; made in house; host or cells: Escherichia coli BL21 (DE3), pET21b
The test is described as follows: FRET peptide assay to monitor HCV NS3/4A proteolytic activity (J4L6S strain). It counts as biochemical, HCV genotype 1b. The settings on record: read-out: IC50 against NS3/4A J4L6S strain. An excerpt:
(§1) HCV NS3 protease complexes, derived from the BMS strain, H77 strain or J4L6S strain, were generated, as described below. These purified recombinant proteins were generated for use in a homogeneous assay (see below) to provide an indication of how effective compounds of the present disclosure would be in inhibiting HCV NS3 proteolytic activity.
(§2) The H77 and J4L6S strains were used for production of recombinant NS3/4A protease complexes. DNA encoding the recombinant HCV NS3/4A protease complex (amino acids 1027 to 1711) for these strains were manipulated as described by P. Gallinari et al. (see Gallinari P, Paolini C, Brennan D, Nardi C, Steinkuhler C, De Francesco R. Biochemistry. 38(17):5620-32, (1999)). Briefly, a three-lysine solubilizing tail was added at the 3′-end of the NS4A coding region. The cysteine in the P1 position of the NS4A-NS4B cleavage site (amino acid 1711) was changed to a glycine to avoid the proteolytic cleavage of the lysine tag. Furthermore, a cysteine to serine mutation was introduced by PCR at amino acid position 1454 to prevent the autolytic cleavage in the NS3 helicase domain. […]

Test [2] deals with HCV replicon (Renilla luciferase reporter) in HUH-7 cells. In words: HCV replicon luciferase reporter assay. Format: cell-based, HCV strain 1b. The settings on record: Huh-7, 96 h, 4 days. The text has this: As a secondary assay, EC50 determinations from the replicon FRET assay were confirmed in a replicon luciferase reporter assay. Utilization of a replicon luciferase reporter assay was first described by Krieger et al (Krieger N, Lohmann V, and Bartenschlager R, J. Virol. 75(10):4614-4624 (2001)). The replicon construct described for our FRET assay was modified by inserting cDNA encoding a humanized form of the Renilla luciferase gene and a linker sequence fused directly to the 3′-end of the luciferase gene. This insert was introduced into the replicon construct using an AscI restriction site located in core, directly upstream of the neomycin marker gene. The adaptive mutation at position 1179 (serine to isoleucine) was also introduced (Blight K J, Kolykhalov, A A, Rice, C M, Science 290(5498):1972-1974). […] Following 4 days in a 37° C./5% CO2 incubator, cells were analyzed for Renilla Luciferase activity using the Promega Dual-Glo Luciferase Assay System. […] Plates were read on a Packard TopCount NXT using a luminescence program.
The percentage inhibition was calculated using the formula below: % control=average luciferase signal in experimental wells (+compound) average luciferase signal in DMSO control wells (− compound)
The values were graphed and analyzed using XLfit to obtain the EC50 value.

Test [3] addresses T2, HCV NS3/4A protease complex, H77 strain (Hepatitis C virus genotype 1a, UniProt P27958, C1454S/C1711G).
T2 construct: recombinant HCV NS3/4A protease complex (amino acids 1027 to 1711) for these strains; made in house; host or cells: Escherichia coli BL21 (DE3), pET21b
The test is described as follows: FRET peptide assay to monitor HCV NS3/4A proteolytic activity (H77 strain). It counts as biochemical, HCV genotype 1a. The following applies: read-out: IC50 against NS3/4A H77 strain.
Description: as §1, §2

T1 sequence (O92972 1027-1711 C1454S/C1711G, one chain of several): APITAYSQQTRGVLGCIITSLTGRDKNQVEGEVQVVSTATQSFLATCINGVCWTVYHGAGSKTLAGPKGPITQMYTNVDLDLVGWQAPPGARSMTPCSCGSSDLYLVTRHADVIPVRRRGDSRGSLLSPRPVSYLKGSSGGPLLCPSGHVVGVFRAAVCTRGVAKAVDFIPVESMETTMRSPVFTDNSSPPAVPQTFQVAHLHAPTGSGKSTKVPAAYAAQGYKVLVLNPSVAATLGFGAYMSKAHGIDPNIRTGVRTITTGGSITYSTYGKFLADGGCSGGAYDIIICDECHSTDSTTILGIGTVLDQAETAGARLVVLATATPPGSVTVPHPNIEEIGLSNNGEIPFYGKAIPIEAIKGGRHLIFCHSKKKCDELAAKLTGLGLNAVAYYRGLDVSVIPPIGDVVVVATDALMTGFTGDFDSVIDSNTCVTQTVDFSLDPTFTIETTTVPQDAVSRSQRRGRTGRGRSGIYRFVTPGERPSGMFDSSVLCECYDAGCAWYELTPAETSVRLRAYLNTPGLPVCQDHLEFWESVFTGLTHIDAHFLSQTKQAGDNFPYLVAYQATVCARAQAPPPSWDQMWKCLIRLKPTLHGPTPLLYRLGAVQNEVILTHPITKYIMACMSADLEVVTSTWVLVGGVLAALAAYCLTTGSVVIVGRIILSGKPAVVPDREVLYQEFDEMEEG
T2 sequence (P27958 1027-1711 C1454S/C1711G, one chain of several): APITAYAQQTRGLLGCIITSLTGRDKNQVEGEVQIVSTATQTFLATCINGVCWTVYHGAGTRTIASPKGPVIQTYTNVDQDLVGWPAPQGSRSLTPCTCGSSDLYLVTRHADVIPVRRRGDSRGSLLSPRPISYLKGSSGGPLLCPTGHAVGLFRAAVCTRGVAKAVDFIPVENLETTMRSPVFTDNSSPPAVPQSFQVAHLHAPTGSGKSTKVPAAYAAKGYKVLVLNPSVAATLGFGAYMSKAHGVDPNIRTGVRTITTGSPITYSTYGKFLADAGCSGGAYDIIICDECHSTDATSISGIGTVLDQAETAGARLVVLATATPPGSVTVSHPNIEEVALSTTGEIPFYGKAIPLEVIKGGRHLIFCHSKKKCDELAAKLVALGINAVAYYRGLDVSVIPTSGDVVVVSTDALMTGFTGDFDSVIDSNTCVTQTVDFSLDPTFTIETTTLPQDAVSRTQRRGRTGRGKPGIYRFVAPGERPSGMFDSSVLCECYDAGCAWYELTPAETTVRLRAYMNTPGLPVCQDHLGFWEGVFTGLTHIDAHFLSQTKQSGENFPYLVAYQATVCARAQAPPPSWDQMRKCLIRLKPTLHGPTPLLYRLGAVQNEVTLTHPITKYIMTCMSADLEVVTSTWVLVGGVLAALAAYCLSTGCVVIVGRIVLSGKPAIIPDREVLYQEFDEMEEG

As a reminder, the EC50 is the midpoint of the concentration-response curve. The low end stands for a more potent agent, the high end for a less potent agent. On to `COc1c(O[C@@H]2C[C@H]3C(=O)N[C@]4(C(=O)NS(=O)(=O)C5CC5)C[C@H]4/C=C\CCCCC[C@H](NC(=O)OC(C)(C)C)C(=O)N3C2)ccc2c(Cl)nccc12` [Compound 3], for which the IC50 came out at 0.47 nM in test [1] and 0.6 nM in test [3]. In addition, the half-maximal effective concentration (EC50) in test [2] stood at 5.5 nM.
